In PMC6788984, “High-potency ligands for DREADD imaging and activation in rodents and monkeys” (Nature Communications, 2019):
“And” between values parts separate entries of the source, which are not always exact repeats. Equal values may be shown once. “Also recorded” adds a separate entry of the source. Read-outs that look alike come from different tables or passages of the source.

What was measured:
hM3Dq [1] = molecular target: T1, hM3Dq (Homo sapiens, UniProt P20309, A239G/Y149C); assay: [3H]clozapine competition binding, membranes of HEK-293 cells expressing hM3Dq
T1 sequence (P20309 whole entry Y149C/A239G): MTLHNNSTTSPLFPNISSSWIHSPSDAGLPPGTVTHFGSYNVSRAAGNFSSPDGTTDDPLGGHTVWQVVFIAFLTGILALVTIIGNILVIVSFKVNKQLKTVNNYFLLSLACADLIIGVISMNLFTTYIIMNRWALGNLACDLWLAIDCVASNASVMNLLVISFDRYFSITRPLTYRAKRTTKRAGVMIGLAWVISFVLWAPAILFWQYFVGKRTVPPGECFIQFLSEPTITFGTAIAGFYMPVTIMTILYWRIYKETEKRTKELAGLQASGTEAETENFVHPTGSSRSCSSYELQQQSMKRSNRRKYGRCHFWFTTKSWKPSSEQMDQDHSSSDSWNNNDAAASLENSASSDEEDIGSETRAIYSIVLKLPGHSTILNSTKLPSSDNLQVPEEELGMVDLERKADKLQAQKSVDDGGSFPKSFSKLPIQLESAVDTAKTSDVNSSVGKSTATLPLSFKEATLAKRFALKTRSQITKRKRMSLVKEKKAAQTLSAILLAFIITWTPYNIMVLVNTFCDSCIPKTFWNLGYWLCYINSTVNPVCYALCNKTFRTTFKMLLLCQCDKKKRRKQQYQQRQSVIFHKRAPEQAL
Experimental: Cells were routinely tested for myclopasma contamination (MycoAlert® Mycoplasma Detection Kit, Lonza). Cells were seeded on 60 cm^2 dishes at 4 × 10^6 cells/dish 24 h before transfection. The indicated amount of cDNA was transfected into HEK-293 cells using polyethylenimine (PEI; Sigma-Aldrich) in a 1–2 DNA:PEI ratio. Cell harvesting for radioligand binding experiments or signaling assays were performed approximately 48 h after transfection.
Cells were suspended in Tris-HCl 50 mM pH 7.4 supplemented with protease inhibitor cocktail (1:100, Sigma-Aldrich, St. Louis, MO, USA). The dissected brain tissue was diluted in Tris-HCl 50 mM buffer supplemented with protease inhibitor cocktail (1:1000). HEK-293 cells or brain tissue were disrupted with a Polytron homogenizer (Kinematica, Basel, Switzerland). Homogenates were centrifuged at 48,000g (50 min, 4 °C) and washed twice in the same conditions to isolate the membrane fraction. Protein was quantified by the bicinchoninic acid method (Pierce). […] In all cases, free and membrane-bound radioligand were separated by rapid filtration of 500-μl aliquots in a 96-well plate harvester (Brandel, Gaithersburg, MD, USA) and washed with 2 ml of ice-cold Tris-HCl buffer. […] One-site competition curves were fitted using Prism 7 (GraphPad Software, La Jolla, CA, USA). Ki values were calculated using the Cheng–Prusoff equation.

P-gp = molecular target: T2, P-gp (Homo sapiens, UniProt P08183); assay: P-glycoprotein (P-gp) substrate assay in Caco-2 cells with and without verapamil; assay type: in vitro ADME; conditions: Caco-2, efflux ratio with/without verapamil
T2 construct: host or cells: Caco-2
T2 sequence (P08183 whole entry): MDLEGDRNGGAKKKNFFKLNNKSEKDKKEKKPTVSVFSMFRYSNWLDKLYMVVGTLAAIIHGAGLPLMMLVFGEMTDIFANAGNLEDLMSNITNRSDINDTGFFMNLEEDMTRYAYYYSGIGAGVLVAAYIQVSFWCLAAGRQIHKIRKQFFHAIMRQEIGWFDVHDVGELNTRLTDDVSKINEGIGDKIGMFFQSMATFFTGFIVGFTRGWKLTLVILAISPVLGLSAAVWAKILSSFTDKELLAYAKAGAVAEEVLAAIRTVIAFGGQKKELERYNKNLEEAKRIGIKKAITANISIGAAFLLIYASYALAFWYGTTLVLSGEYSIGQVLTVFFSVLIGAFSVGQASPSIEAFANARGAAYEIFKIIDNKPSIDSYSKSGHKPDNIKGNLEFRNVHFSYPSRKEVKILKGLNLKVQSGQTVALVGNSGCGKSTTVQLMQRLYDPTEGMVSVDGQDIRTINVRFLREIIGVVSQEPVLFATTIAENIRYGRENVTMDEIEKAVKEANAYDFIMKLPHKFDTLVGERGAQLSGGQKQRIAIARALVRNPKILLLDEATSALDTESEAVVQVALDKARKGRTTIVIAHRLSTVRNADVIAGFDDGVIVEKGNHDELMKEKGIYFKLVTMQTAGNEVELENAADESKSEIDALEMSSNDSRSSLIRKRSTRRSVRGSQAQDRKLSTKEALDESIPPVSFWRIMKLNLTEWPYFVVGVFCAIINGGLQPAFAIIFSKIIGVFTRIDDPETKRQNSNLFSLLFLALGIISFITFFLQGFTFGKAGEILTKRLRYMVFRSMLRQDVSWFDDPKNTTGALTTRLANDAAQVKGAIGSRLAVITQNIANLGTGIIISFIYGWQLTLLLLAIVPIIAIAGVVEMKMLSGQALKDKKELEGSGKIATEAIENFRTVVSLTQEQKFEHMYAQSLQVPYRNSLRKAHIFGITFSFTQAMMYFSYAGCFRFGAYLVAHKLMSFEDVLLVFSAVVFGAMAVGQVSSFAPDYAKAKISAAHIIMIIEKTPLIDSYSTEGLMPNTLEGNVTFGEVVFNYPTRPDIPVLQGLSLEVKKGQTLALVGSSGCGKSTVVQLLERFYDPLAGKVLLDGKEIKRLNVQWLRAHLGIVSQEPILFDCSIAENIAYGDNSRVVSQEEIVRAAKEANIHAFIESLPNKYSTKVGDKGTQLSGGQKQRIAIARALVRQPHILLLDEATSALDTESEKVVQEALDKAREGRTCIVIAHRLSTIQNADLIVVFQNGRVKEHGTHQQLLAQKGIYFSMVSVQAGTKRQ
Experimental: These experiments were performed by an outside vendor (Eurofins, France). C21 was tested in P-gp substrate assessment assays at 10 µM. The A to B and B to A permeability was measured in Caco-2 cells in the presence and absence of verapamil, a P-gp inhibitor. Efflux ratios (E) were calculated based on the apparent B–A and A–B permeability with and without verapamil. In each experiment, the respective reference compound was tested concurrently with the test compound to assess the assay reliability. Fluorescein was used as the cell monolayer integrity marker. Fluorescein permeability assessment (in the A–B direction at pH 7.4 on both sides) was performed after the permeability assay for the test compound.

hM3Dq [2] = molecular target: T1, hM3Dq; assay: Intracellular Ca2+ assay (GCaMP6f) in HEK-293 cells transfected with hM3Dq; assay type: cell-based; parameters: host or cells: HEK-293; conditions: for hM3Dq activation, concentration-response points: replicates; for EC50: fluorescent assay in HEK-293 cells
Experimental: The indicated amount of cDNA was transfected into HEK-293 cells using polyethylenimine (PEI; Sigma-Aldrich) in a 1–2 DNA:PEI ratio. Cell harvesting for radioligand binding experiments or signaling assays were performed approximately 48 h after transfection.
Intracellular Ca^2+ concentration was monitored using the fluorescent Ca^2+ biosensor GCaMP6f. […] The net change in intracellular Ca^2+ concentration was expressed as F − F0 where F is the fluorescence at a given concentration of ligand and F0 is the average of the baseline values (fluorescence values of buffer-treated wells).

[3] = system: untransfected HEK-293 cells; assay: Negative controls of the functional assays: HEK-293 cells without DREADD; assay type: cell-based, human; conditions: for functional response, BRET (Go-alpha-Rluc8, beta1, gamma2-mVenus), no DREADD / functional response, GCaMP6f, no DREADD: HEK-293 cells
Experimental: BRET assays were performed to detect receptor ligand-induced Gαo1 protein activation. […] Forty-eight hour after transfection cells were harvested, washed and resuspended in phosphate-buffered saline (PBS). Approximately, 200,000 cells/well were distributed in 96-well plates, and 5 µM Coelenterazine H (substrate for luciferase) was added to each well. Five minutes after addition of Coelenterazine H, ligands were added to each well. The fluorescence of the acceptor was quantified (excitation at 500 nm and emission at 540 nm for 1-s recordings) in a PheraStar FSX plate reader (BMG Labtech) to confirm the constant expression levels across experiments. In parallel, the BRET signal from the same batch of cells was determined as the ratio of the light emitted by mVenus (510–540 nm) over that emitted by RLuc (485 nm). Results were calculated for the BRET change (BRET ratio for the corresponding drug minus BRET ratio in the absence of the drug) 5 min after the addition of the ligands.
Intracellular Ca^2+ concentration was monitored using the fluorescent Ca^2+ biosensor GCaMP6f. HEK-293 cells were transfected with 7 µg/dish of the cDNA encoding for hM3Dq (Addgene #89149) or hM4Di (Addgene #89150) and 7 µg/dish of GCaMP6. Forty-eight hours after transfection, cells were harvested, washed, resuspended in Mg^2+-free Locke’s buffer pH 7.4 (154 mM NaCl, 5.6 mM KCl, 3.6 mM NaHCO3, 2.3 mM CaCl2, and 5 mM HEPES) containing 5.6 mM of glucose and approximately 200,000 cells/well were distributed in black 96-well plates. Increasing concentrations of the indicated compound were added to the cells and fluorescence intensity (excitation at 480 nm, emission at 530 nm) was measured at 18-s intervals during 250 s using a PHERAstar FSX (BMG Labtech). The net change in intracellular Ca^2+ concentration was expressed as F − F0 where F is the fluorescence at a given concentration of ligand and F0 is the average of the baseline values (fluorescence values of buffer-treated wells).

hM3Dq [4] = molecular target: T1, hM3Dq; assay: Locomotor activity in TH-hM3Dq rats; assay type: in vivo, rat; parameters: host or cells: TH-expressing neurons of the ventral tegmental area in TH:Cre rats (AAV transduction, in vivo); conditions: for hM3Dq-stimulated locomotion: 0.01-0.3 mg kg-1
Experimental: Tyrosine hydroxylase (TH):Cre rats (n = 9; founder, K. Deisseroth lab) or WT littermates (n = 9) were bilaterally injected with AAV2 hSyn-DIO-hM3Dq-mCherry (1ul/hemisphere, Addgene), and allowed to recover for 2 + weeks. […] Vehicle was administered on 2 separate days, and average locomotion was used for comparison with DREADD agonists. Cohort 2 underwent the same procedures, but with a 4 h testing session, and the following IP injections: vehicle (x2), JHU37152 (0.01–0.3 mg kg^−1), JHU37160 (0.01–0.3 mg kg^−1). All drugs were dissolved in 5% DMSO in saline, and injected 1 ml kg^−1.

WT mice = assay: Locomotor activity in WT mice
Source text: Wild-type mice (C57BL/6J) were ordered from Jackson Laboratories and rats (Sprague–Dawley) were ordered from Charles River. Rodents were male and ordered at ~6 weeks of age. Transgenic mice were bred at NIDA breeding facility. […] Three male rhesus monkeys (Macaca mulatta) weighed 8–12 kg. All experiments and procedures complied with all relevant ethical regulations for animal testing and research and followed NIH guidelines and were approved by each institute’s animal care and use committees.
Ten minutes after injection, animals were placed in an open field arena (Opto-varimex ATM3, Columbus Instruments) and their locomotor activity was tracked during 60 min as infrared beam crossings and traveled distance was converted to cm. Animals were repeatedly tested on consecutive sessions (after an initial habituation session with no drug treatment) in a counterbalanced design.

| SMILES | P-gp substrate (P-gp) | functional response in HEK-293 cells lacking DREADDs [3] | functional response, BRET (Go-alpha-Rluc8, beta1, gamma2-mVenus), no DREADD [3] | functional response, GCaMP6f, no DREADD [3] | Ki (hM3Dq [1]) | EC50 (hM3Dq [2]) | hM3Dq-stimulated locomotion (hM3Dq [4]; TH-hM3Dq rats) | locomotor activity (WT mice; WT mice, 0.01 to 1 mg kg-1) | Locomotor activity, individual animals (Figure 3 Panel A) (WT mice; WT mice, dose 0.01) | Locomotor activity, individual animals (Figure 3 Panel A) (WT mice; WT mice, dose 0.1) | Locomotor activity, individual animals (Figure 3 Panel A) (WT mice; WT mice, dose 1) | other results |
| --- | --- | --- | --- | --- | --- | --- | --- | --- | --- | --- | --- | --- |
| c1ccc2c(c1)N=C(N1CCNCC1)c1ccccc1N2 [C21] | none of these compounds is a substrate for P-gp | Neither clozapine nor C21 produced detectable functional responses | did not show any functional response | did not show any functional response |  |  |  |  |  |  |  | less affinity than CLZ (hM3Dq [1]; DREADDs in HEK-293 cells): 100 fold; Ki (hM3Dq [1]; read-out: affinity (approximate, for equipotent concentrations), DREADD not specified): ~200 nM; Ki (hM3Dq [1]; read-out: hM3Dq Ki): 230 nM; hM3Dq activation, concentration-response points (hM3Dq [2]; Log [compound] -5): 93.1143 and 77.3513 and 111.083; hM3Dq activation, concentration-response points (hM3Dq [2]; Log [compound] -6): 96.4744 and 82.7674 and 98.8645; hM3Dq activation, concentration-response points (hM3Dq [2]; Log [compound] -7): 74.044 and 103.149 and 78.6539; hM3Dq activation, concentration-response points (hM3Dq [2]; Log [compound] -8): 83.0838 and 91.1589 and 81.1662; hM3Dq activation, concentration-response points (hM3Dq [2]; Log [compound] -9): 6.817 and 0.07299 and 9.557; hM3Dq activation, concentration-response points (hM3Dq [2]; Log [compound] -10): -3.555 and -5.9944 and 2.166; hM3Dq activation, concentration-response points (hM3Dq [2]; Log [compound] -11): -13.1516 and -2.046 and 1.55; hM3Dq activation, concentration-response points (hM3Dq [2]; Log [compound] -12): -8.693 and -2.2785 and 8.813; hM3Dq-mediated intracellular Ca2+ increases (hM3Dq [2]; transfected HEK-293 cells): potent intracellular Ca^2+ increases comparable to that of clozapine; locomotor activity (hM3Dq [4]; TH-hM3Dq rats, 1 or 5 mg/kg IP): significant increases in locomotor activity; locomotor activity / non-specific effects (WT mice; WT mice, 10 mg/kg): produced non-specific effects; doses producing off-target effects (WT mice; mice without DREADDs): higher than 1 mg kg^-1; locomotor activity (WT mice; mouse, in vivo): did not affect locomotor activity |
| CCN1CCN(C2=Nc3cc(Cl)ccc3Nc3c(F)cccc32)CC1 [JHU37160, 8-Chloro-11-(4-ethylpiperazin-1-yl)-4-fluoro-5H-dibenzo[b,e][1,4]diazepine] | Neither JHU37152 nor JHU37160 were P-gp substrates | no responses were observed; also recorded: did not produce any agonistic effect | did not show any functional response | did not show any functional response | 1.9 nM | 18.5 nM | robust, selective increases in hM3Dq-stimulated locomotion | without any significant locomotor effects | 15.4443 and 132.603 and 147.829 and 129.309 and 75.7603 and 45.5126 and 63.7894 and 145.958 and 96.1391 and 10.074 and 65.3531 and 48.0503 and 10.0356 and 25.3389 and 152.354 and 157.609 and 175.04 | 28.3765 and 136.794 and 39.0145 and 128.13 and 27.5178 and 138.037 and 95.0881 and 162.364 and 107.636 and 24.3135 and 117.274 and 117.261 and 37.3098 and 136.435 and 99.1126 and 117.312 and 123.413 | 10.497 and 121.35 and 79.3619 and 104.303 and 59.97 and 24.8262 and 41.2959 and 159.16 and 61.4696 and 5.601 and 141.242 and 63.7125 and 17.4822 and 64.5071 and 75.0041 and 144.933 and 145.945 | P-gp substrate (P-gp; listed as J60): none of these compounds is a substrate for P-gp; Locomotor activity, individual animals (Figure 3 Panel G) (hM3Dq [4]; dose 0.01, listed as J60): 279.417 and 1024.06 and 48.7042 and 167.624 and 1237.61 and 111.992 and 663.301; Locomotor activity, individual animals (Figure 3 Panel G) (hM3Dq [4]; dose 0.1, listed as J60): 1035.55 and 900.553 and 68.6081 and 759.611 and 1367.43 and 667.9 and 184.82 |
| CCN1CCN(C2=Nc3cc(Cl)ccc3Nc3cccc(F)c32)CC1 [JHU37152, 8-Chloro-11-(4-ethylpiperazin-1-yl)-1-fluoro-5H-dibenzo[b,e][1,4]diazepine] | Neither JHU37152 nor JHU37160 were P-gp substrates | no responses were observed; also recorded: did not produce any agonistic effect | did not show any functional response | did not show any functional response | 1.8 nM | 5 nM | robust, selective increases in hM3Dq-stimulated locomotion | without any significant locomotor effects | 95.2897 and 38.5088 and 39.3587 and 61.0726 and 69.3706 and 99.6544 and 90.1854 and 160.23 and 57.4795 and 29.9947 and 33.6903 and 133.302 and 88.2496 and 102.637 and 90.23 | 107.254 and 270.493 and 33.7361 and 22.8384 and 36.807 and 76.5906 and 34.7692 and 97.3133 and 74.027 and 53.9478 and 95.1236 and 125.045 and 39.4044 and 129.319 and 143.965 | 81.5049 and 96.9074 and 39.4517 and 156.512 and 62.1842 and 92.749 and 79.3711 and 129.761 and 80.0996 and 7.993 and 23.9209 and 25.8105 and 93.4157 and 30.5341 and 90.9279 | P-gp substrate (P-gp; listed as J52): none of these compounds is a substrate for P-gp; Locomotor activity, individual animals (Figure 3 Panel G) (hM3Dq [4]; dose 0.01, listed as J52): 94.7443 and 207.479 and 64.3586 and 274.036 and 1667.81 and 1211.25 and 111.862; Locomotor activity, individual animals (Figure 3 Panel G) (hM3Dq [4]; dose 0.1, listed as J52): 1115.35 and 940.001 and 366.654 and 337.558 and 1635.37 and 694.852 and 547.724 |
